# Source: patent US20100063065A1 (Inpharmatica Limited, priority 2005, published 2010)
# Target: T1, PPARδ (Homo sapiens, UniProt Q03181)
# T1 construct: fused to amino acids 147-441 of PPARδ downstream of CMV promoter; expressed in transfected cells; host or cells: HEK293 cells, transiently transfected with pFACMV-PPARδ using Fugene
# T1 sequence (Q03181 147-441): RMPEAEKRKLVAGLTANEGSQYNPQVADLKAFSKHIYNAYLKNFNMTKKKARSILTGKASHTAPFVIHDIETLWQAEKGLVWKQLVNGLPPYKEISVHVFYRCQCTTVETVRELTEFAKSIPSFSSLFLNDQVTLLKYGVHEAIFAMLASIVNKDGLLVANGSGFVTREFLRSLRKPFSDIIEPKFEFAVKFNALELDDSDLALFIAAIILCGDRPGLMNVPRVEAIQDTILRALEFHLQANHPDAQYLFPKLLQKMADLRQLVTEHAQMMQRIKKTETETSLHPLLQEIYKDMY
# Test: Transactivation assay (PPARδ GAL4 assay) in transiently transfected HEK293 cells
# Assay type: cell-based
# Details: luciferase reporter, Table 1
# Procedure, shortened: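 Luciferase luminescence after 24 h compound treatment (0-30 μM final, OptiMEM, 37° C./5% CO2) gave EC50 by sigmoidal fitting, with activity normalised to GW501516 as percent. Reporter system: transiently transfected HEK293 expressing GAL4 DNA-binding domain fused to human PPARδ aa 147-441, plus 5×GAL4-driven luciferase.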
row,EC50,SMILES
1,100 to 1000 nM,"CCc1cc(C(=O)c2ccc(OC(F)(F)F)cc2)c(NC(=O)CSc2ccc(OCC(=O)O)c(C)c2)s1 [Example 94, (4-{[5-Ethyl-3-(4-trifluoromethoxy-benzoyl)-thiophen-2-ylcarbamoyl]-methylsulfanyl}-2-methyl-phenoxy)-acetic acid]"
2,100 to 1000 nM,"CCc1cc(C(=O)c2ccc(OC(F)(F)F)cc2)c(NC(=O)CSc2ccc(OC(C)(C)C(=O)O)cc2)s1 [Example 95, 2-(4-{[5-Ethyl-3-(4-trifluoromethoxy-benzoyl)-thiophen-2-ylcarbamoyl]-methylsulfanyl}-phenoxy)-2-methyl-propionic acid]"
3,100 to 1000 nM,"CCc1cc(C(=O)c2ccc(OC(F)(F)F)cc2)c(NC(=O)CSc2ccc(CCC(=O)O)cc2)s1 [Example 96, 3-(4-{[5-Ethyl-3-(4-trifluoromethoxy-benzoyl)-thiophen-2-ylcarbamoyl]-methylsulfanyl}-phenyl)-propionic acid]"
4,100 to 1000 nM,"CCc1cc(C(=O)c2ccc(Cl)cc2)c(NC(=O)c2ccc(OCC(=O)O)cc2)s1 [Example 97, {4-[3-(4-Chloro-benzoyl)-5-ethyl-thiophen-2-ylcarbamoyl]-phenoxy}-acetic acid]"
5,100 to 1000 nM,"CCc1cc(C(=O)c2ccc(OC(F)(F)F)cc2)c(NC(=O)c2cccc(SCC(=O)O)c2)s1 [Example 98, {3-[5-Ethyl-3-(4-trifluoromethoxy-benzoyl)-thiophen-2-ylcarbamoyl]-phenylsulfanyl}-acetic acid]"
6,< 100 nM,"CCc1cc(C(=O)c2ccc(OC(F)(F)F)cc2)c(NC(=O)c2ccc(OCC(=O)O)cc2)s1 [Example 99, {4-[5-Ethyl-3-(4-trifluoromethoxy-benzoyl)-thiophen-2-ylcarbamoyl]-phenoxy}-acetic acid]"
7,100 to 1000 nM,"CCc1cc(C(=O)c2ccc(OC(F)(F)F)cc2)c(NC(=O)c2cccc(OCC(=O)O)c2)s1 [Example 100, {3-[5-Ethyl-3-(4-trifluoromethoxy-benzoyl)-thiophen-2-ylcarbamoyl]-phenoxy}-acetic acid]"
8,< 100 nM,"CCc1cc(C(=O)c2ccc(OC(F)(F)F)cc2)c(NC(=O)c2ccc(OCC(=O)O)c(C)c2)s1 [Example 101, {4-[5-Ethyl-3-(4-trifluoromethoxy-benzoyl)-thiophen-2-ylcarbamoyl]-2-methyl-phenoxy}-acetic acid]"
9,100 to 1000 nM,"CCc1cc(C(=O)c2ccc(OC(F)(F)F)cc2)c(NC(=O)c2ccc(OC(C)(C)C(=O)O)cc2)s1 [Example 102, 2-{4-[5-Ethyl-3-(4-trifluoromethoxy-benzoyl)-thiophen-2-ylcarbamoyl]-phenoxy}-2-methyl-propionic acid]"
10,100 to 1000 nM,"CCc1cc(C(=O)c2ccc(OC(F)(F)F)cc2)c(NC(=O)c2ccc(SCC(=O)O)cc2)s1 [Example 103, {4-[5-Ethyl-3-(4-trifluoromethoxy-benzoyl)-thiophen-2-ylcarbamoyl]-phenylsulfanyl}-acetic acid]"

# Same assay, conditions: luciferase reporter, Table 2
row,EC50,SMILES
1,100 to 1000 nM,"CCc1cc(C(=O)c2ccc(OC(F)(F)F)cc2)c(NC(=O)CCCC(=O)O)s1 [Example 104, 4-[5-Ethyl-3-(4-trifluoromethoxy-benzoyl)-thiophen-2-ylcarbamoyl]-butyric acid]"
2,100 to 1000 nM,"CCc1cc(C(=O)c2ccc(OC(F)(F)F)cc2)c(NC(=O)CCCSCC(=O)O)s1 [Example 105, {3-[5-Ethyl-3-(4-trifluoromethoxy-benzoyl)-thiophen-2-ylcarbamoyl]-propylsulfanyl}-acetic acid]"
3,< 100 nM,"CCc1cc(C(=O)c2ccc(OC(F)(F)F)cc2)c(NC(=O)C(C)SCC(=O)O)s1 (centres unmarked) [Example 106, {1-[5-Ethyl-3-(4-trifluoromethoxy-benzoyl)-thiophen-2-ylcarbamoyl]-ethylsulfanyl}-acetic acid]"
4,100 to 1000 nM,"CCc1cc(C(=O)c2ccc(OC(F)(F)F)cc2)c(NC(=O)C(C)(C)SCC(=O)O)s1 [Example 107, {1-[5-Ethyl-3-(4-trifluoromethoxy-benzoyl)-thiophen-2-ylcarbamoyl]-1-methyl-ethylsulfanyl}-acetic acid]"
5,< 100 nM,"CCc1cc(C(=O)c2ccc(OC(F)(F)F)cc2)c(NC(=O)C(C)(C)SC(C)C(=O)O)s1 (centres unmarked) [Example 108, 2-{1-[5-Ethyl-3-(4-trifluoromethoxy-benzoyl)-thiophen-2-ylcarbamoyl]-1-methyl-ethylsulfanyl}-propionic acid]"
6,< 100 nM,"CCc1cc(C(=O)c2ccc(OC(F)(F)F)cc2)c(NC(=O)C(CC)SCC(=O)O)s1 (centres unmarked) [Example 109, {1-[5-Ethyl-3-(4-trifluoromethoxy-benzoyl)-thiophen-2-ylcarbamoyl]-propylsulfanyl}-acetic acid]"
7,< 100 nM,"CCc1cc(C(=O)c2ccc(OC(F)(F)F)cc2)c(NC(=O)C(CC)SC(C)C(=O)O)s1 (centres unmarked) [Example 110, 2-{1-[5-Ethyl-3-(4-trifluoromethoxy-benzoyl)-thiophen-2-ylcarbamoyl]-propylsulfanyl}-propionic acid]"
8,100 to 1000 nM,"CCc1cc(C(=O)c2ccc(OC)cc2)c(NC(=O)CSC(C)C(=O)O)s1 (centres unmarked) [Example 111, 2-{[5-Ethyl-3-(4-methoxy-benzoyl)-thiophen-2-ylcarbamoyl]-methylsulfanyl}-propionic acid]"
9,< 100 nM,"CCc1cc(C(=O)c2ccc(OC(F)(F)F)cc2)c(NC(=O)CSC(C)C(=O)O)s1 (centres unmarked) [Example 112, 2-{[5-Ethyl-3-(4-trifluoromethoxy-benzoyl)-thiophen-2-ylcarbamoyl]-methylsulfanyl}-propionic acid]"
10,< 100 nM,"CCc1cc(C(=O)c2ccc(OC(F)(F)F)cc2)c(NC(=O)C(SCC(=O)O)c2ccccc2)s1 (centres unmarked) [Example 113, {[5-Ethyl-3-(4-trifluoromethoxy-benzoyl)-thiophen-2-ylcarbamoyl]-phenyl-methylsulfanyl}-acetic acid]"
11,100 to 1000 nM,"CCc1cc(C(=O)c2ccc(OC(F)(F)F)cc2)c(NC(=O)C(SCC(=O)O)C(C)C)s1 (centres unmarked) [Example 114, {1-[5-Ethyl-3-(4-trifluoromethoxy-benzoyl)-thiophen-2-ylcarbamoyl]-2-methyl-propylsulfanyl}-acetic acid]"
12,100 to 1000 nM,"CCc1cc(C(=O)c2ccc(OC(F)(F)F)cc2)c(NC(=O)c2ccc(NCC(=O)O)cc2)s1 [Example 115, {4-[5-Ethyl-3-(4-trifluoromethoxy-benzoyl)-thiophen-2-ylcarbamoyl]-phenylamino}-acetic acid]"
13,100 to 1000 nM,"CCc1cc(C(=O)c2ccc(OC(F)(F)F)cc2)c(NC(=O)c2ccc(CCC(=O)O)cc2)s1 [Example 116, 3-{4-[5-Ethyl-3-(4-trifluoromethoxy-benzoyl)-thiophen-2-ylcarbamoyl]-phenyl}-propionic acid]"
14,1000 to 30000 nM,"CCc1cc(C(=O)c2ccc(OC(F)(F)F)cc2)c(NC(=O)COc2ccc(OCC(=O)O)cc2)s1 [Example 117, (4-{[5-Ethyl-3-(4-trifluoromethoxy-benzoyl)-thiophen-2-ylcarbamoyl]-methoxy}-phenoxy)-acetic acid]"
15,100 to 1000 nM,"CCc1cc(C(=O)c2ccc(OC(F)(F)F)cc2)c(NC(=O)C(C)(C)NCC(=O)O)s1 [Example 118, {1-[5-Ethyl-3-(4-trifluoromethoxy-benzoyl)-thiophen-2-ylcarbamoyl]-1-methyl-ethylamino}-acetic acid]"
16,100 to 1000 nM,"CCc1cc(C(=O)c2ccc(OC(F)(F)F)cc2)c(NC(=O)C(C)(C)N2CCC[C@@H]2C(=O)O)s1 [Example 119, (R)-1-{1-[5-Ethyl-3-(4-trifluoromethoxy-benzoyl)-thiophen-2-ylcarbamoyl]-1-methyl-ethyl}-pyrrolidine-2-carboxylic acid]"
17,< 100 nM,"CCc1cc(C(=O)c2ccc(OC(F)(F)F)cc2)c(NC(=O)C(CC)N2CCC[C@@H]2C(=O)O)s1 (stereo partly drawn) [Example 120, (R)-1-{1-[5-Ethyl-3-(4-trifluoromethoxy-benzoyl)-thiophen-2-ylcarbamoyl]-propyl}-pyrrolidine-2-carboxylic acid]"
18,100 to 1000 nM,"CCc1cc(C(=O)c2ccc(OC(F)(F)F)cc2)c(NC(=O)C(CC)NCC(=O)O)s1 (centres unmarked) [Example 121, {1-[5-Ethyl-3-(4-trifluoromethoxy-benzoyl)-thiophen-2-ylcarbamoyl]-propylamino}-acetic acid]"
19,100 to 1000 nM,"CCc1cc(C(=O)c2ccc(OC(F)(F)F)cc2)c(NC(=O)C(NCC(=O)O)c2ccccc2)s1 (centres unmarked) [Example 122, ({[5-Ethyl-3-(4-trifluoromethoxy-benzoyl)-thiophen-2-ylcarbamoyl]-phenyl-methyl}-amino)-acetic acid]"
20,< 100 nM,"CCc1cc(C(=O)c2ccc(OC(F)(F)F)cc2)c(NC(=O)C(C)N2CCC[C@@H]2C(=O)O)s1 (stereo partly drawn) [Example 123, (R)-1-{1-[5-Ethyl-3-(4-trifluoromethoxy-benzoyl)-thiophen-2-ylcarbamoyl]-ethyl}-pyrrolidine-2-carboxylic acid]"
21,100 to 1000 nM,"CCc1cc(C(=O)c2ccc(OC(F)(F)F)cc2)c(NC(=O)C(c2ccccc2)N2CCC[C@@H]2C(=O)O)s1 (stereo partly drawn) [Example 124, (R)-1-{[5-Ethyl-3-(4-trifluoromethoxy-benzoyl)-thiophen-2-ylcarbamoyl]-phenyl-methyl}-pyrrolidine-2-carboxylic acid]"
22,100 to 1000 nM,"CCc1cc(C(=O)c2ccc(OC(F)(F)F)cc2)c(NC(=O)CN(CC)[C@@H](C)C(=O)O)s1 [Example 125, (S)-2-(Ethyl-{[5-ethyl-3-(4-trifluoromethoxy-benzoyl)-thiophen-2-ylcarbamoyl]-methyl}-amino)-propionic acid]"
